What was measured:
KIT = KIT (Homo sapiens, UniProt P10721); experiment: KIT in vitro kinase activity assay (HTRF kinEASE TK); assay type: biochemical; conditions: for inhibition at 0.01 µM: compound 10 nM, read-out: KIT inhibition rate, 10 nM; for inhibition at 0.1 µM: compound 100 nM, read-out: KIT inhibition rate, 100 nM
Text: (§1) CSF-1R, PDGFR-α, KDR (VEGFR2) and KIT in vitro Kinase Activity Assay:
(§2) • ENVISION (Perkinelmer, 2104) • White 384-well MicroPlate (Cat #264706, Nunc) • HTRF kinEASE TK kit main reagents (Cat #62TKOPEC, Cisbio) • TK-biotin substrate • Streptavidin-XL665 • TK Antibody-Cryptate • 5× Enzymatic buffer (5×KB) • Staphylococcal enterotoxin B (SEB) • HTRF Detection buffer • CSF-1R (Cat #PV3249, Invitrogen) • PDGFR-α (Cat #PV3811, Invitrogen) • KDR (Cat #PV3660, Invitrogen) • KIT (Cat #08-156, Carna) • ATP 10 mM (Cat #PV3227, Invitrogen) • DTT 1 M (Cat #D5545, Sigma) • MgCl2 1 M (Cat #M8266, Sigma) • MnCl2 1 M (Cat #244589, Sigma)
(§3) Dilute Substrate-TK and ATP to 5× of the reaction concentration using 1× Kinase Buffer.
(§4) Prepare the 5× enzyme working solution using 1× Kinase Buffer.
(§5) Prepare the 4×Sa-XL665 working solution using Detection Buffer.
(§6) Dilute TK-Ab-Cryptate 100 times using Detection Buffer to prepare the working solution.
(§7) After all reagents were prepared according to the methods described above, except for the enzyme, they were equilibrated to room temperature before starting the sample addition. • a) First, 2.5% DMSO solutions were prepared separately using the pre-prepared 1× kinase buffer (DMSO concentrations that were too high could affect the reaction, so the final concentration of DMSO was controlled at 1%). Then, the corresponding 2.5% DMSO solution for the enzyme was used to dilute the test compounds. Compounds were screened with two concentrations of 100 nM and 10 nM. Except for the control wells, 4 μL of the diluted test compound solution was added to the reaction wells, and 4 μL of the pre-prepared 2.5% DMSO solution was added to the control wells. • b) 2 μL of the pre-prepared TK-biotin substrate solution at the corresponding concentration for the kinase was added to all reaction wells. • c) 2 μL of the pre-prepared enzyme solution at the corresponding concentration was added to all reaction wells except the negative control wells. For the negative control wells, 2 μL of 1× kinase buffer corresponding to the enzyme was added to make up the volume. The plate was sealed with sealing film, mixed gently, and incubated at room temperature for 10 min to allow the compounds to fully interact with the enzyme. • d) 2 μL of the ATP solution at the corresponding concentration for the enzyme was added to all reaction wells to initiate the kinase reaction. ATP concentrations and reaction times for enzyme screening are shown in Table 26 • e) Five minutes before the end of the kinase reaction, the detection solution was prepared. The detection buffer from the kit was used to prepare detection solutions for Streptavidin-XL665 and TK antibody europium cryptate (1:100) at the appropriate concentrations for the two enzymes. • f) After the kinase reaction was completed, 5 μL of the diluted Streptavidin-XL665 solution was added to all reaction wells. After mixing, the diluted TK antibody europium cryptate detection solution was immediately added. • g) The plate was sealed and mixed, incubated at room temperature for 1 hour, and the fluorescence signal was detected using the ENVISION (PerkinElmer) instrument (excitation at 320 nm, emission at 665 nm and 615 nm). The inhibition rate for each well was calculated based on the full-activity control wells and background signal wells, and the average value of the replicates was taken.

PDGFR-α = PDGFR-α (Homo sapiens, UniProt P16234); experiment: PDGFR-α in vitro kinase activity assay (HTRF kinEASE TK); assay type: biochemical; conditions: for inhibition at 0.01 µM: compound 10 nM, read-out: PDGFRα inhibition rate, 10 nM; for inhibition at 0.1 µM: compound 100 nM, read-out: PDGFRα inhibition rate, 100 nM
Text: as §1, §2, §3, §4, §5, §6, §7

Sequence of PDGFR-α (P16234 24-1089): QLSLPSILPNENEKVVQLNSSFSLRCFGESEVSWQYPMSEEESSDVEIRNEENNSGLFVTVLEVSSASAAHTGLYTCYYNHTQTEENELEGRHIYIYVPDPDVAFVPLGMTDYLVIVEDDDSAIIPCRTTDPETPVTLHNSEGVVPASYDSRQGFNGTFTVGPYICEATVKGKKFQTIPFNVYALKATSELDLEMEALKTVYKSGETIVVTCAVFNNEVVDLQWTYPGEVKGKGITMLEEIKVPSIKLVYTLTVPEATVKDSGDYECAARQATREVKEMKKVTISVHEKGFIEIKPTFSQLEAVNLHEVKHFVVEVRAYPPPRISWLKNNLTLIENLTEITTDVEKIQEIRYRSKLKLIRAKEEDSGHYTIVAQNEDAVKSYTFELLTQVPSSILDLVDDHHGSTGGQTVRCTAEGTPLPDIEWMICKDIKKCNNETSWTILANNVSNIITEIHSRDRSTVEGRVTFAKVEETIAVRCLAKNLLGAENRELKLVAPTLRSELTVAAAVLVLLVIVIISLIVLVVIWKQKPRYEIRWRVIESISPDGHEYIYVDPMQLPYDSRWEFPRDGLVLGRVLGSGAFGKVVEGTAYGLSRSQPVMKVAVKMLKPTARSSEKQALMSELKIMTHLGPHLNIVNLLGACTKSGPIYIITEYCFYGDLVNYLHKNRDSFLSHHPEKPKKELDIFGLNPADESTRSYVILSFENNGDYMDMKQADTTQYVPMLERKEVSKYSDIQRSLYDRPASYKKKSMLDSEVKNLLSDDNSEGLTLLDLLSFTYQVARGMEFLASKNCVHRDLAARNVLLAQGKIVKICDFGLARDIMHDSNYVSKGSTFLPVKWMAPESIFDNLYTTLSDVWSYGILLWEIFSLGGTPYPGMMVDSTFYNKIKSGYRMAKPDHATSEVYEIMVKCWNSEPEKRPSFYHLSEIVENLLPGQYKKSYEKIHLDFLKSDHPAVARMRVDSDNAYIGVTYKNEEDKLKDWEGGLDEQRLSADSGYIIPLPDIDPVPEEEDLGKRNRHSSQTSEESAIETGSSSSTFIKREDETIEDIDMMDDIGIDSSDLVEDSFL
Sequence of KIT (P10721 26-976): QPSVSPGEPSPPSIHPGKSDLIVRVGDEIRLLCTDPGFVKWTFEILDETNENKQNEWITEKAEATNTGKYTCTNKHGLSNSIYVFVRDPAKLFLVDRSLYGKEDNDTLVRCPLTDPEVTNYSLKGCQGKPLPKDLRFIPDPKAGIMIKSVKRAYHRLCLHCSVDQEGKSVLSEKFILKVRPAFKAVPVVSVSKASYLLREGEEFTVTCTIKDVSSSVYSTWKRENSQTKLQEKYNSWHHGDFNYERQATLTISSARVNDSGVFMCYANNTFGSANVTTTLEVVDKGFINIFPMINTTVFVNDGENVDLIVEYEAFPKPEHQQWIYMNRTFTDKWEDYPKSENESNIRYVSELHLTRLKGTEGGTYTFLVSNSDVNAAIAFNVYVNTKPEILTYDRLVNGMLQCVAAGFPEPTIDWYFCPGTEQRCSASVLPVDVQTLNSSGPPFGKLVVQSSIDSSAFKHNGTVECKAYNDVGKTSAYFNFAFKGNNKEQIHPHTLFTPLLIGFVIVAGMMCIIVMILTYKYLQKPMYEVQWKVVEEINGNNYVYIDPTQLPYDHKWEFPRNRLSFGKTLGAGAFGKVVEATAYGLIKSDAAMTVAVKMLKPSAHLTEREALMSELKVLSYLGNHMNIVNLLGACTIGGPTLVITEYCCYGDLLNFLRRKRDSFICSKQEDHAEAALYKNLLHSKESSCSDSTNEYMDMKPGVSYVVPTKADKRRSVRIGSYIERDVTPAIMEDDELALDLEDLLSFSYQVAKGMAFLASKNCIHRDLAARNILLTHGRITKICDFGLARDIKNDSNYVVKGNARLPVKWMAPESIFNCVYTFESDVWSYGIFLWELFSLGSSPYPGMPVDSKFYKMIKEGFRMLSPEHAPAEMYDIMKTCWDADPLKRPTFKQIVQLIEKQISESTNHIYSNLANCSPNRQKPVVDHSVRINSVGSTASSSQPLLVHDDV

SMILES	inhibition at 0.01 µM (KIT) [%]	inhibition at 0.1 µM (KIT) [%]	inhibition at 0.01 µM (PDGFR-α) [%]	inhibition at 0.1 µM (PDGFR-α) [%]
Cn1cc(-c2cnc(N)c(O[C@H]3CCc4c(C(=O)Nc5cccc(C6CC6)c5)cccc43)c2)cn1 [Compound 4, (S)-1-((2-amino-5-(1-methyl-1H-pyrazol-4-yl)pyridin-3-yl)oxy)-N-(3-cyclopropylphenyl)-2,3-dihydro-1H-indene-4-carboxamide]	76.8	99.2	90.9	96.8
Cc1cccc(NC(=O)c2cccc3c2CC[C@@H]3Nc2cncc(-c3cnn(C)c3)c2)c1 [Compound 13, (S)-1-((5-(1-methyl-1H-pyrazol-4-yl)pyridin-3-yl)amino)-N-(m-tolyl)-2,3-dihydro-1H-indene-4-carboxamide]	73	97.5	78.7	99.1
Cn1cc(-c2cncc(N[C@H]3CCc4c(C(=O)Nc5cncc(Cl)c5)cccc43)c2)cn1 [Compound 14aa, (S)—N-(5-chloropyridin-3-yl)-1-((5-(1-methyl-1H-pyrazol-4-yl)pyridin-3-yl)amino)-2,3-dihydro-1H-indene-4-carboxamide]	61.9	97.3	72.7	98.7
Cn1cc(-c2cncc(N[C@H]3CCc4c(C(=O)Nc5ccc(C(F)(F)F)nc5)cccc43)c2)cn1 [Compound 14ah]	11.3	83.3	67.6	99.4
CN1CCc2ccc(NC(=O)c3cccc4c3CC[C@@H]4Nc3cncc(-c4cnn(C)c4)c3)cc2C1 [Compound 14ap]	30.5	80.7	72.8	98.8
Cc1cncc(NC(=O)c2cccc3c2CC[C@@H]3Nc2cncc(-c3cnn(C)c3)c2)c1 [Compound 14as]	58.7	94.7	91	101
CN1CCc2nc(NC(=O)c3cccc4c3CC[C@@H]4Nc3cncc(-c4cnn(C)c4)c3)sc2C1 [Compound 14ba]	60.1	95	75.5	100
Cc1cccc(C(=O)Nc2cccc3c2CC[C@@H]3Oc2cncc(-c3cnn(C)c3)c2)c1 [Compound 15, (S)-3-methyl-N-(1-((5-(1-methyl-1H-pyrazol-4-yl)pyridin-3-yl)oxy)-2,3-dihydro-1H-inden-4-yl)benzamide]	13.3	31.6	39.6	64
Cn1cc(-c2cncc(O[C@H]3CCc4c(C(=O)Nc5cncc(Cl)c5)cccc43)c2)cn1 [Compound 19a, (S)—N-(5-chloropyridin-3-yl)-1-((5-(1-methyl-1H-pyrazol-4-yl)pyridin-3-yl)oxy)-2,3-dihydro-1H-indene-4-carboxamide]	22.1	48.6	40.5	86.2
Cn1cc(-c2cncc(O[C@H]3CCc4c(C(=O)Nc5cccc(C6CC6)c5)cccc43)c2)cn1 [Compound 19b]	11.2	80.2	22.9	97.1
CN1CCc2nc(NC(=O)c3cccc4c3CC[C@@H]4Oc3cncc(-c4cnn(C)c4)c3)sc2C1 [Compound 19f]	12.1	53.9	14.5	67.2
CN(C)Cc1cncc(NC(=O)c2cccc3c2CC[C@@H]3Oc2cncc(-c3cnn(C)c3)c2)c1 [Compound 19h]	-3.9	4.9	3.8	68.3
Cc1cncc(NC(=O)c2cccc3c2CC[C@@H]3Oc2cncc(-c3cnn(C)c3)c2)c1 [Compound 19j]	14.5	62.8	23.5	79.7
Cc1cc(NC(=O)c2cccc3c2CC[C@@H]3Oc2cncc(-c3cnn(C)c3)c2)cc(C)n1 [Compound 19k, (S)—N-(2,6-dimethylpyridin-4-yl)-1-((5-(1-methyl-1H-pyrazol-4-yl)pyridin-3-yl)oxy)-2,3-dihydro-1H-indene-4-carboxamide]	21.8	63.7	13.9	74.3
CN(c1cncc(-c2cnn(C)c2)c1)[C@H]1CCc2c(C(=O)Nc3cncc(Cl)c3)cccc21 [Compound 21, (S)—N-(5-chloropyridin-3-yl)-1-(methyl (5-(1-methyl-1H-pyrazol-4-yl)pyridin-3-yl)amino)-2,3-dihydro-1H-indene-4-carboxamide]	2.4	15.3	7.7	38.7
CN(c1cncc(-c2cnn(C)c2)c1)[C@H]1CCc2c(C(=O)Nc3cccc(C4CC4)c3)cccc21 [Compound 22a, (S)—N-(3-cyclopropylphenyl)-1-(methyl (5-(1-methyl-1H-pyrazol-4-yl)pyridin-3-yl)amino)-2,3-dihydro-1H-indene-4-carboxamide]	5.8	27.2	62.9	60.5
Cn1cc(-c2cncc(N[C@H]3CCc4c(C(=O)Nc5nn(C)c6ccccc56)cccc43)n2)cn1 [Compound 27g, (S)—N-(1-methyl-1H-indazol-3-yl)-1-((6-(1-methyl-1H-pyrazol-4-yl)pyrazin-2-yl)amino)-2,3-dihydro-1H-indene-4-carboxamide]	89.6	100	94.7	98.9
Cn1cc(-c2cncc(N[C@H]3CCc4c(Nc5cc(C(C)(C)C)on5)cccc43)c2)cn1 [Compound 41, (S)—N^4-(5-(tert-butyl)isoxazol-3-yl)-N^1-(5-(1-methyl-1H-pyrazol-4-yl)pyridin-3-yl)-2,3-dihydro-1H-indene-1,4-diamine]	7.5	66.4	55.5	100
Cn1cc(-c2cncc(N[C@H]3CCc4c(Nc5noc(C(C)(C)C)n5)cccc43)c2)cn1 [Compound 42o]	14.5	38.8	15.4	57.8
Cn1ncc2ncc(N[C@H]3CCc4c(C(=O)Nc5cccc(C6CC6)c5)cccc43)cc21 [Compound 73, (S)—N-(3-cyclopropylphenyl)-1-((1-methyl-1H-pyrazolo[4,3-b]pyridin-6-yl)amino)-2,3-dihydro-1H-indene-4-carboxamide]	59.1	99.7	90	100
Cn1cc2ncc(N[C@H]3CCc4c(C(=O)Nc5nc(C6CC6)cs5)cccc43)cc2n1 [Compound 74h, (S)—N-(4-cyclopropylthiazol-2-yl)-1-((2-methyl-2H-pyrazolo[4,3-b]pyridin-6-yl)amino)-2,3-dihydro-1H-indene-4-carboxamide]	35.3	94.9	29.3	94.8
Cn1ncc2ncc(O[C@H]3CCc4c(C(=O)Nc5cncc(Cl)c5)cccc43)cc21 [Compound 76ac, (S)—N-(5-chloropyridin-3-yl)-1-((1-methyl-1H-pyrazolo[4,3-b]pyridin-6-yl)oxy)-2,3-dihydro-1H-indene-4-carboxamide]	12.6	54	13.7	53.1
Cn1cc2ncc(O[C@H]3CCc4c(C(=O)Nc5cncc(Cl)c5)cccc43)cc2n1 [Compound 76ai]	39.6	79.1	37.8	89.3
